In publication PMC12420824, “Discovery of a selective alpha-kinase 1 inhibitor for the rare genetic disease ROSAH syndrome” (Nature Communications, 2025):

Tests used:
Assay in all cases: HotSpot kinase assay
Conditions in all cases: read-out: % Enzyme Activity (relative to DMSO control), 10 uM
[1] = biological target: TYK2 (Homo sapiens, UniProt P29597)
Text: (§1) Additionally, a 10-dose dilution series of staurosporine and other enzyme-appropriate compounds were included as positive control inhibitors.

[2] = biological target: CAMKK2 (Homo sapiens, UniProt Q96RR4)
Text: as §1

[3] = biological target: AMPK (A2/B1/G2) (Homo sapiens, UniProt P54646)
Text: as §1

[4] = biological target: MEK3 (Homo sapiens, UniProt P46734)
Sequence of MEK3 (P46734 whole entry): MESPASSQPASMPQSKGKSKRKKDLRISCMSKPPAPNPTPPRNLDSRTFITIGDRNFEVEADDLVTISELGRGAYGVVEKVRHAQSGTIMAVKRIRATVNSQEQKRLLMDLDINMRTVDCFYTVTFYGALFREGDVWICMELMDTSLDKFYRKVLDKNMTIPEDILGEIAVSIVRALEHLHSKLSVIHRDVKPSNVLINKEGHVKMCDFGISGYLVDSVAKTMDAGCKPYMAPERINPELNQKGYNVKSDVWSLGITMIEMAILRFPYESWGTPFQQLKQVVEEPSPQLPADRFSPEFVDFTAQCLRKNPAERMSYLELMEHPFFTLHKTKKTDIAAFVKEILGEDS

[5] = biological target: PLK3 (Homo sapiens, UniProt Q9H4B4)
[6] = biological target: RSK4 (Homo sapiens, UniProt Q9UK32)
Text: as §1

[7] = biological target: BRSK2 (Homo sapiens, UniProt Q8IWQ3)
Text: as §1

[8] = biological target: ASK1/MAP3K5 (Homo sapiens, UniProt Q99683)
Sequence of ASK1/MAP3K5 (Q99683 whole entry): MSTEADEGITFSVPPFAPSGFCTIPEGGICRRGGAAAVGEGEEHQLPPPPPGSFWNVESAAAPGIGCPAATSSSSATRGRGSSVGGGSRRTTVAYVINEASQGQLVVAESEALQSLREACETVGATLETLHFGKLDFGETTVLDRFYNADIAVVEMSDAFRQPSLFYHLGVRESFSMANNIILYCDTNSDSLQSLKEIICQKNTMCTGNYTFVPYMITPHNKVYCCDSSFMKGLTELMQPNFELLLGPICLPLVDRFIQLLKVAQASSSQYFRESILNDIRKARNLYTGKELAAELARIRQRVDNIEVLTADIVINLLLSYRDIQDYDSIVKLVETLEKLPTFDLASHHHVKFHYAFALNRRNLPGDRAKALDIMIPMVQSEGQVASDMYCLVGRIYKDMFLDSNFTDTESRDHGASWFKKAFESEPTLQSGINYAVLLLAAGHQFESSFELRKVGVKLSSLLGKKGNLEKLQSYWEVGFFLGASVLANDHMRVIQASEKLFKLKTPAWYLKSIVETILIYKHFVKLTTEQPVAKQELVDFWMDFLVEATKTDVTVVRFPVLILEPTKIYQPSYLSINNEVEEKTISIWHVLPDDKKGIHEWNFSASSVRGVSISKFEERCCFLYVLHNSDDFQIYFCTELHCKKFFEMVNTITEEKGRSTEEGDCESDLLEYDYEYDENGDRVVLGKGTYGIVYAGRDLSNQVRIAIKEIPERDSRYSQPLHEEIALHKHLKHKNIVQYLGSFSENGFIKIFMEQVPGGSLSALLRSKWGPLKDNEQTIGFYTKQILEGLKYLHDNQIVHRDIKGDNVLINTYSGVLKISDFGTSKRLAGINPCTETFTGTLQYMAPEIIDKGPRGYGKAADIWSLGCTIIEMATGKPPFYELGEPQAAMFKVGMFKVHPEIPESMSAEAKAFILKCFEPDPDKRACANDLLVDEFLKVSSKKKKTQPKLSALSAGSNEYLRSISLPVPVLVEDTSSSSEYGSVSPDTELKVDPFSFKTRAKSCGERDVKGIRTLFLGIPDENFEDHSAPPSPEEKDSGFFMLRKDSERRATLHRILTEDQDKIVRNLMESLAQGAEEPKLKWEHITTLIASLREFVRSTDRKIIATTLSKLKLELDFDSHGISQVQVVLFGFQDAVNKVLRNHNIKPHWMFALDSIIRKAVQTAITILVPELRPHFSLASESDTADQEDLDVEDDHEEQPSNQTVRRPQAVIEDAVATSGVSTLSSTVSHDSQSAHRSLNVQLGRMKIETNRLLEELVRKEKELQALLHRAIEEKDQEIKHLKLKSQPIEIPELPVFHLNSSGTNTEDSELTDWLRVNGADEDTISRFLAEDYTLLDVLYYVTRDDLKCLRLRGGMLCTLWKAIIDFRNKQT
Text: as §1

[9] = biological target: EPHA7 (Homo sapiens, UniProt Q15375)
Text: as §1

[10] = biological target: PKCg (Homo sapiens, UniProt P05129)
Text: as §1

[11] = biological target: CDK14/cyclin Y (PFTK1) (Homo sapiens, UniProt O94921)
Text: as §1

[12] = biological target: PYK2 (Homo sapiens, UniProt Q14289)
Sequence of PYK2 (Q14289 whole entry): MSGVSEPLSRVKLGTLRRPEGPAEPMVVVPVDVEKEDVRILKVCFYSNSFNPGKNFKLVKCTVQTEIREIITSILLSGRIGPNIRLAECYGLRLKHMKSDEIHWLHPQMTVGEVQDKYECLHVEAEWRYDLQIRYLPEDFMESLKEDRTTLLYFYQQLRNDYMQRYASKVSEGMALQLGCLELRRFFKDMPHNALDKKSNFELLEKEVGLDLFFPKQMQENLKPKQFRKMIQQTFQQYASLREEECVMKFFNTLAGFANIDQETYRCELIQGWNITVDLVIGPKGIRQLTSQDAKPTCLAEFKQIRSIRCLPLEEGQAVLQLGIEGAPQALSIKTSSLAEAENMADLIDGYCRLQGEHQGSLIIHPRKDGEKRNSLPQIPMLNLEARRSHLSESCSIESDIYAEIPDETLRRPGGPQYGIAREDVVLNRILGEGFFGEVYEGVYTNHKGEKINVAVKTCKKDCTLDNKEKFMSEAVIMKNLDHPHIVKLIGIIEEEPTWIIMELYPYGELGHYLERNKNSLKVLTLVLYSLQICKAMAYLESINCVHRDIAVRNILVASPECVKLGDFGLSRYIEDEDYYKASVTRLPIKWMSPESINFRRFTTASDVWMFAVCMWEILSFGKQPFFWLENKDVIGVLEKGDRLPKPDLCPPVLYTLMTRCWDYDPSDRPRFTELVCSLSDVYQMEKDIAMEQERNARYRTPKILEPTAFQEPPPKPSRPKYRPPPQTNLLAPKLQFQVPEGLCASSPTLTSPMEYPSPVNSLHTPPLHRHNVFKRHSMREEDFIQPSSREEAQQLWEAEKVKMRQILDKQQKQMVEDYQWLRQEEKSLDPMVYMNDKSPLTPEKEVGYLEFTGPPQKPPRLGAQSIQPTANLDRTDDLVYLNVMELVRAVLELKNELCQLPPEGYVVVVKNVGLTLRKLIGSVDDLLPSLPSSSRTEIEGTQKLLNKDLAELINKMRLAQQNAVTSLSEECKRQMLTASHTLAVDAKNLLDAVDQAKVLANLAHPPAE
Text: as §1

[13] = biological target: AMPK(A1/B1/G1) (Homo sapiens, UniProt Q13131)
Text: as §1

[14] = biological target: CDK1/cyclin E (Homo sapiens, UniProt P06493)
Sequence of CDK1/cyclin E (P06493 whole entry): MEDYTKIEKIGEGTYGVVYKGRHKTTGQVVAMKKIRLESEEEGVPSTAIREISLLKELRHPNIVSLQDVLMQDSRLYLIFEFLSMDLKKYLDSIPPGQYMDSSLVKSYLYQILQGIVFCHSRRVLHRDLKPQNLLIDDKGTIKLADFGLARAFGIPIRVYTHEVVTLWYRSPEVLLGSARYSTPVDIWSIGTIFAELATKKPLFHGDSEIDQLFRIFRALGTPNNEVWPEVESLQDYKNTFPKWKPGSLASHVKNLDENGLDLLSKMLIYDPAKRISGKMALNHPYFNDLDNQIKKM
Sequence of CDK1/cyclin E (P24864 whole entry, further chain): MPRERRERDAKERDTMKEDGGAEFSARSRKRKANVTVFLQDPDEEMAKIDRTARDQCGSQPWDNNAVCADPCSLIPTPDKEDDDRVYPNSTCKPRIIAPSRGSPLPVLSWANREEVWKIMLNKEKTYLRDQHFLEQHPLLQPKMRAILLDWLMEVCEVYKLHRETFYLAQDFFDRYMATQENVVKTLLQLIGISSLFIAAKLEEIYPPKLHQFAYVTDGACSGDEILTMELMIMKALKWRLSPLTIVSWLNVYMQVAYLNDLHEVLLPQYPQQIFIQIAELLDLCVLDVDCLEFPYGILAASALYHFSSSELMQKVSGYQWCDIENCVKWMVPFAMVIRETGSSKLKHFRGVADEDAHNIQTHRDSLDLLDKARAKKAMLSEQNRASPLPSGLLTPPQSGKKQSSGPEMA

[15] = biological target: TLK2 (Homo sapiens, UniProt Q86UE8)
Text: as §1

[16] = biological target: AMPK(A1/B2/G1) (Homo sapiens, UniProt Q13131)
Text: as §1

[17] = biological target: p70S6Kb/RPS6KB2 (Homo sapiens, UniProt Q9UBS0)
[18] = biological target: CLK1 (Homo sapiens, UniProt P49759)
Text: as §1

[19] = biological target: PAK6 (Homo sapiens, UniProt Q9NQU5)
Text: as §1

[20] = biological target: RIPK4 (Homo sapiens, UniProt P57078)
Text: as §1

[21] = biological target: DAPK1 (Homo sapiens, UniProt P53355)
Text: as §1

[22] = biological target: NLK (Homo sapiens, UniProt Q9UBE8)
Sequence of NLK (Q9UBE8 whole entry): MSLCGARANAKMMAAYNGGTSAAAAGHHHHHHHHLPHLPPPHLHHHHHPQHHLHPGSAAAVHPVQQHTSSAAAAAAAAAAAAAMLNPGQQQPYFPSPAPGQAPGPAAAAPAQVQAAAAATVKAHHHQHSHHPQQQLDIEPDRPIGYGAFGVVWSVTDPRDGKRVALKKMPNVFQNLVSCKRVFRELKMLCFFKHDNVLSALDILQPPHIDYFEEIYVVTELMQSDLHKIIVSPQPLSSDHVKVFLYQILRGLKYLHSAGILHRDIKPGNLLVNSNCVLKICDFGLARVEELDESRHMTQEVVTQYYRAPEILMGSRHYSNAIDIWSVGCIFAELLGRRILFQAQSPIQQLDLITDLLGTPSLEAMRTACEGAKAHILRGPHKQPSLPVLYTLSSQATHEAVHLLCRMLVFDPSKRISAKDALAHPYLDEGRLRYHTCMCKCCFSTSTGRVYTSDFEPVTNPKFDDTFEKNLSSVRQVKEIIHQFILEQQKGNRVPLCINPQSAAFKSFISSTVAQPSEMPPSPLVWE
Text: as §1

[23] = biological target: PAK3 (Homo sapiens, UniProt O75914)
Text: as §1

[24] = biological target: Aurora B (Homo sapiens, UniProt Q96GD4)
Sequence of Aurora B (Q96GD4 whole entry): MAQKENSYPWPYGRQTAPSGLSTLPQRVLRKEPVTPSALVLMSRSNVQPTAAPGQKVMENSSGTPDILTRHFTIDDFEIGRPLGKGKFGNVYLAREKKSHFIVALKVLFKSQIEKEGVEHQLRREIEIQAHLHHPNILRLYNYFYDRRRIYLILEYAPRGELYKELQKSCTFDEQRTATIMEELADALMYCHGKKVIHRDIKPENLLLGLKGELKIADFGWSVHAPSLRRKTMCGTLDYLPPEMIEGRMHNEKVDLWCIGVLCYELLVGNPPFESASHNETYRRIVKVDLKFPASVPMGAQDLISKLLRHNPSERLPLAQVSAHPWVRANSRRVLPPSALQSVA
Text: as §1

[25] = biological target: EPHA5 (Homo sapiens, UniProt P54756)
Text: as §1

[26] = biological target: RSK1 (Homo sapiens, UniProt Q15418)
[27] = biological target: SBK1 (Homo sapiens, UniProt Q52WX2)
Text: as §1

[28] = biological target: SYK (Homo sapiens, UniProt P43405)
Text: as §1

[29] = biological target: ROS/ROS1 (Homo sapiens, UniProt P08922)
Text: as §1

[30] = biological target: EPHB4 (Homo sapiens, UniProt P54760)
Text: as §1

[31] = biological target: STK38/NDR1 (Homo sapiens, UniProt Q15208)
Sequence of STK38/NDR1 (Q15208 whole entry): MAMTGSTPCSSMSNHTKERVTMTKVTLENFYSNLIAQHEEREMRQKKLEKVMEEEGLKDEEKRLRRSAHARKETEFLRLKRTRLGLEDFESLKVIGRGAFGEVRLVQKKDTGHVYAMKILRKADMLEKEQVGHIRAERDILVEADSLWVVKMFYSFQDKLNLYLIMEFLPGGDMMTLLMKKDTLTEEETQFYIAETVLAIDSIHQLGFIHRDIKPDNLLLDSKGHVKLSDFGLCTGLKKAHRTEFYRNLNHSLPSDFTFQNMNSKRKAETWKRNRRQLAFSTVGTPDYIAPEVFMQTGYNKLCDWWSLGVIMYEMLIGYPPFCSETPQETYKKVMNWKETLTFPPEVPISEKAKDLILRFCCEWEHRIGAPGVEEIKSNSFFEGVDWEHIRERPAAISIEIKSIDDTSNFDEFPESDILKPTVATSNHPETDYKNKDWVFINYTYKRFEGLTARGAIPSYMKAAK
Text: as §1

[32] = biological target: JAK3 (Homo sapiens, UniProt P52333)
[33] = biological target: ERK1 (Homo sapiens, UniProt P27361)
Text: as §1

[34] = biological target: SRPK1 (Homo sapiens, UniProt Q96SB4)
Text: as §1

[35] = biological target: MKK7 (Homo sapiens, UniProt O14733)
[36] = biological target: p70S6K/RPS6KB1 (Homo sapiens, UniProt P23443)
[37] = biological target: SRPK2 (Homo sapiens, UniProt P78362)
Text: as §1

[38] = biological target: MYLK3 (Homo sapiens, UniProt Q32MK0)
[39] = biological target: PKCIOTA (Homo sapiens, UniProt P41743)
Text: as §1

Work on C#C[C@@](C)(c1ccc(Cl)cc1)c1csc(NC(=O)c2c(F)cc(N3CCNCC3)cc2F)n1 (stereo in doubt) [DF-003] yielded a remaining activity at 10 µM [1] of 82.7%, a remaining activity at 10 µM [2] of 98.9% and a remaining activity at 10 µM [3] of 82.9%. The remaining activity at 10 µM [4] was 87%, the remaining activity at 10 µM [5] was 102% and the remaining activity at 10 µM [6] was 88.3%. The remaining activity at 10 µM [7] was 96%, the remaining activity at 10 µM [8] was 83.8% and the remaining activity at 10 µM [9] was 105%. The remaining activity at 10 µM [10] was 93.5%, the remaining activity at 10 µM [11] was 98.8% and the remaining activity at 10 µM [12] was 129%. The remaining activity at 10 µM [13] was 119%, the remaining activity at 10 µM [14] was 83.6% and the remaining activity at 10 µM [15] was 92.1%. For the same compound, the remaining activity at 10 µM [16] was 79.6%, the remaining activity at 10 µM [17] was 58.1% and the remaining activity at 10 µM [18] was 91.2%. For the same compound, the remaining activity at 10 µM [19] was 84.2%, the remaining activity at 10 µM [20] was 48.3% and the remaining activity at 10 µM [21] was 62.8%. For the same compound, the remaining activity at 10 µM [22] was 99.5%, the remaining activity at 10 µM [23] was 117% and the remaining activity at 10 µM [24] was 76.5%. For the same compound, the remaining activity at 10 µM [25] was 95.5%, the remaining activity at 10 µM [26] was 69.2% and the remaining activity at 10 µM [27] was 94.3%. It also gave a remaining activity at 10 µM [28] of 78.8%, a remaining activity at 10 µM [29] of 93.5% and a remaining activity at 10 µM [30] of 85.6%. It also gave a remaining activity at 10 µM [31] of 90%, a remaining activity at 10 µM [32] of 98.8% and a remaining activity at 10 µM [33] of 115%. The remaining activity at 10 µM [34] was 125%, the remaining activity at 10 µM [35] was 103% and the remaining activity at 10 µM [36] was 69.6%. For the same compound, the remaining activity at 10 µM [37] was 126%, the remaining activity at 10 µM [38] was 87.3% and the remaining activity at 10 µM [39] was 77.5%.
